Series [1] can be described thus: Selectivity index, ratio of CC50 for African green monkey Vero cells to EC50 for Chikungunya virus Indian Ocean strain 899 infected in African green monkey Vero cells. The note with it: read-out: Ratio CC50/EC50. In kind it is toxicity.
Series [2] is described as follows: Cytotoxicity against African green monkey Vero cells by MTS/PMS assay. In kind it is cell-based. The note with it: chlorocebus sabaeus.
The subject of series [3] is Chikungunya virus. Briefly: Antiviral activity against Chikungunya virus Indian Ocean strain 899 infected in African green monkey Vero cells assessed as inhibition of viral-induced cytopathic effect by measuring concentration required for maximum activity measured on day 5 post infection by MTS/PMS assay. In kind it is functional, Indian Ocean 899.
The test system of series [4] is Chikungunya virus. Put plainly: Antiviral activity against Chikungunya virus Indian Ocean strain 899 infected in African green monkey Vero cells assessed as inhibition of viral-induced cytopathic effect measured on day 5 post infection by MTS/PMS assay. Format: functional, organism-based, Indian Ocean 899. The note with it: for EC50 / EC90: Chikungunya virus, Indian Ocean 899, Vero, 120 h.

Structures are written as SMILES.

With `Cc1ccc(/C=N/NC(=O)/C=C/c2ccc(-c3ccccc3)cc2)cc1`, the selectivity ratio in series [1] was > 1.3. The CC50 in series [2] is > 294 µM. Also, the Activity in series [3] was 294 µM. Also, in series [4], the Imax turned out to be 78%, the EC50 was determined as 230 µM and the EC90 was > 294 µM.
Turning to `Cc1ccc(/C=N/NC(=O)/C=C/c2ccc(C(F)(F)F)cc2)cc1`, in series [1], the selectivity ratio was 2.1. The same compound yielded a CC50 in series [2] of 203 µM. The Activity in series [3] turned out to be 99 µM. In series [4], the Imax is 61%, the EC50 was 96.3 µM and the EC90 is > 150 µM.
On to `Cc1ccc(-c2cn(CCc3ccccc3)nn2)cc1`, for which, in series [1], the selectivity ratio was 1.6. This compound also gave a CC50 in series [2] of 200 µM. For the same compound, in series [3], the Activity was determined as 163 µM. In series [4], the Imax came to 74% and the 50% effective concentration (EC50) came to 122 µM.
As to `CCOc1ccc(-c2nnc(CCc3ccccc3)o2)cc1OCC`, in series [3], the Activity is 73.9 µM. In series [4], the Imax came to 4%, the EC50 is > 98.4 µM and the EC90 is > 98.4 µM.
In the case of `CC(C)(C)c1ccc(C(=O)CC(=O)N/N=C/c2ccc(O)cc2)cc1`, the selectivity ratio in series [1] was found to be 2.3. For the same compound, the CC50 in series [2] is 14.7 µM. The Activity in series [3] was determined as 7.9 µM. In series [4], the Imax is listed as 87%, the EC50 was determined as 7.2 µM and the EC90 came out at 8 µM.
For `Oc1ccc(/C=N/NC(=S)NCCc2ccccc2)cc1`, in series [1], the selectivity ratio is 1.8. The compound also yielded a CC50 in series [2] of 87.8 µM. Besides, the Activity in series [3] was 51 µM. In series [4], the Imax is given as 67% and the EC50 came out at 48.3 µM.
Consider `CC(C)(C)c1ccc(CCc2nnc(-c3ccc(O)cc3)o2)cc1`, for which the selectivity ratio in series [1] came out at 1.8. The compound also displayed a CC50 in series [2] of 191 µM. Moreover, the Activity in series [3] was determined as 103 µM. For the same compound, in series [4], the Imax was 69%, the EC50 came out at 108 µM and the EC90 was > 103 µM.
Turning to `Cc1ccc(-c2[nH]c3ccccc3c2/C=N/NC(=S)NCCc2ccccc2)cc1`, the selectivity ratio in series [1] worked out at 4.4. The CC50 in series [2] came to 7.8 µM. Moreover, the Activity in series [3] stood at 2.5 µM. In series [4], the Imax is recorded as 100%, the half-maximal effective concentration (EC50) turned out to be 1.8 µM and the EC90 is 2.5 µM.
In the case of `C/C(=N\NC(=O)N/C=C/c1ccc(C(C)(C)C)cc1)c1ccc(C2CCCCC2)cc1`, the selectivity ratio in series [1] stood at 2.9. Besides, it took 123 µM to reach half-maximal cytotoxicity in series [2] (CC50). For the same compound, the Activity in series [3] was determined as 79 µM. For the same compound, in series [4], the Imax is given as 90%, the EC50 was determined as 42.3 µM and the EC90 came to 78.8 µM.
As to `CCOc1ccc(/C=N/NC(=S)NCCc2ccccc2)cc1OCC`, the selectivity ratio in series [1] stood at 18. In addition, the CC50 in series [2] was 109 µM. In addition, the Activity in series [3] stood at 9.3 µM. In addition, in series [4], the Imax stood at 90%, the EC50 worked out at 5.9 µM and the EC90 came to 9.8 µM.
For `CC(C)(C)c1ccc(/C=C/C(=O)Nc2nc3ccccc3[nH]2)cc1`, the Activity in series [3] was determined as 157 µM. In series [4], the Imax was determined as 38%, the concentration for a half-maximal effect (EC50) was > 157 µM and the EC90 was > 157 µM.
Consider `Cc1ccc(-c2nnc(Cc3ccc(C(C)(C)C)cc3)o2)cc1`, for which, in series [3], the Activity was determined as 27.2 µM. Also, in series [4], the Imax stood at 100%, the EC50 was found to be 17.9 µM and the EC90 amounted to 22.7 µM.
For `Cc1ccc(-c2nnc(CCc3ccccc3)o2)cc1` the same measures were 1 µM, 2%, > 378 µM and > 378 µM.
Take `C/C(=N\NC(=O)c1nc2ccccc2[nH]1)c1ccc(C2CCCCC2)cc1`: the selectivity ratio in series [1] was found to be 2.4. The CC50 in series [2] turned out to be 6.2 µM. In addition, the Activity in series [3] was determined as 4.3 µM. Further, in series [4], the Imax worked out at 83% and the EC50 was determined as 2.6 µM.
The corresponding values for `CCOc1ccc(/C=N/NC(=O)/C=C/c2ccc(C(F)(F)F)cc2)cc1OCC` are 1.7, 84.1 µM, 69 µM, 75% and 48.9 µM.
Consider `Cc1ccc(/C=N/NC(=O)N/C=C/c2ccc(C(C)(C)C)cc2)cc1`, for which, in series [1], the selectivity ratio was found to be 0.8. The same compound registered a CC50 in series [2] of 192 µM. For the same compound, the Activity in series [3] was 187 µM. Besides, in series [4], the Imax was determined as 50%, the EC50 was determined as 246 µM and the EC90 is > 298 µM.
Consider `CC(C)(C)c1ccc(/C=C/NC(=O)N/N=C/c2ccc(O)cc2)cc1`, for which, in series [1], the selectivity ratio amounted to 1.9. In series [2], this compound returned a CC50 of 10.4 µM. Further, the Activity in series [3] was 7.4 µM. For the same compound, in series [4], the Imax is reported as 89%, the EC50 turned out to be 5.6 µM and the EC90 came to 7.5 µM.
Regarding `Cc1ccc(/C=N/NC(=O)/C=C/c2ccc(C(C)C)cc2)cc1`, in series [1], the selectivity ratio was 1. Besides, the midpoint of cytotoxicity in series [2], the CC50, lay at 25 µM. In addition, in series [3], the Activity is 20 µM. In series [4], the Imax was found to be 50% and the EC50 is 25.9 µM.
With `Cc1ccc2[nH]c(NC(=O)/C=C/c3ccc(C(C)(C)C)cc3)nc2c1`, in series [3], the Activity turned out to be 300 µM. In series [4], the Imax came to 47%, the EC50 was > 300 µM and the EC90 was > 300 µM.
In the case of `CC(C)(C)c1ccc(CCC(=O)Nc2nc3ccccc3[nH]2)cc1`, the Activity in series [3] turned out to be 311 µM. Further, in series [4], the Imax is on record as 41%, the EC50 was > 311 µM and the 90% effect concentration (EC90) was > 311 µM.
`Cc1ccc2[nH]c(NC(=O)CCc3ccc(C(C)(C)C)cc3)nc2c1`: the Activity in series [3] worked out at 1.6 µM. Further, in series [4], the Imax is reported as 8%, the EC50 is > 298 µM and the EC90 is > 298 µM.
`CCOc1ccc(-c2nnc(CCc3ccc(C(C)(C)C)cc3)o2)cc1OCC`: the selectivity ratio in series [1] came to 1.2. Also, the midpoint of cytotoxicity in series [2], the CC50, lay at 15.5 µM. In addition, the Activity in series [3] amounted to 13.5 µM. Further, in series [4], the Imax is 61% and the concentration for a half-maximal effect (EC50) turned out to be 12.4 µM.
In the case of `CCOc1ccc(-c2nnc(Cc3ccc(C(C)(C)C)cc3)o2)cc1OCC`, the Activity in series [3] was determined as 131.4 µM. For the same compound, in series [4], the Imax is recorded as 15% and the EC50 came to 39.7 µM.
The compound `CCOc1ccc(/C=N/NC(=O)CC(=O)c2ccc(C(C)(C)C)cc2)cc1OCC` returned a CC50 in series [2] of 81 µM. Further, in series [3], the Activity worked out at 244 µM. Besides, in series [4], the Imax came out at 4%, the EC50 is > 244 µM and the EC90 was > 244 µM.
On to `Cc1ccc(/C=N/NC(=O)CC(=O)c2ccc(C(C)(C)C)cc2)cc1`, for which, in series [2], half-maximal cytotoxicity (CC50) was put at 84 µM. In addition, the Activity in series [3] was found to be 74 µM. Further, in series [4], the Imax is reported as 13%, the EC50 was > 74 µM and the concentration for an effect of 90% (EC90) was > 74 µM.
`C/C(=N\NC(=S)NCCc1ccccc1)c1ccc(C2CCCCC2)cc1`: in series [1], the selectivity ratio is 12.2. The same compound returned a 50% cytotoxic concentration (CC50) in series [2] of 52.9 µM. Also, in series [3], the Activity came out at 6 µM. Moreover, in series [4], the Imax is given as 90%, the half-maximal effective concentration (EC50) was determined as 4.3 µM and the EC90 worked out at 5.9 µM.

In general, CC50 refers to the concentration giving 50% cytotoxicity. The EC50 is the concentration needed to bring the measured effect to its halfway point. For orientation: EC90 means the concentration needed for an effect of 90%.

Source of the values: ChEMBL document CHEMBL4196052, “Rational modifications on a benzylidene-acrylohydrazide antiviral scaffold, synthesis and evaluation of bioactivity against Chikungunya virus” (Eur J Med Chem, 2018).
